Data on 89 molecules can be found in a melting point compilation (Tetko et al.; mined from patent text by program, amines drawn as free bases though some values may be those of a salt).

Usually melting point stands for the temperature, or range, at which the solid turns liquid. Take `CN(C)C(=O)c1c(-c2ccccc2)ccc2ccccc12`: the melting point lay in the range of 133 to 134 °C.
The molecule `COc1ccnc(C#N)c1OC` came in with a melting point of 133 °C.
On to `CCOC(=O)C1CCCN(CCC2CCc3cc(OCc4ccc(-c5ccccc5)cc4)ccc3C2)C1` (centres undefined), for which the melting point lay in the range of 97 to 98 °C.
Molecule `COC(=O)C[C@H]1C(=O)OCN1C(=O)OCc1ccccc1` registered a melting point of 90 to 93 °C.
`O=C(CNc1c(C(=O)O)[nH]c2cc(Cl)cc(Cl)c12)c1ccccc1Cc1ccccc1` had a melting point of 234 to 235 °C.
Consider `COc1ccc2ccc(N3C(=O)c4ccccc4C3CC(=O)CCN(C)C)nc2n1` (centres undefined), for which the melting point is 140 °C.
On to `COc1ccc(/C=C/c2nc3cc(C(=O)O)ccc3[nH]2)cc1OC`, for which the melting point is greater than 285 °C.
As to `CCn1ncc(C(=O)c2ccc(S(C)(=O)=O)c(COC)c2C)c1O`, the melting point lay within 116 to 118 °C.
To `O=C(O)Cc1cc(C(=O)c2c(F)cccc2F)ccc1O` belongs 120 °C; to `CC(C)S(=O)(=O)c1ccc2[nH]nc(Nc3nccs3)c2c1`, 146 to 148 °C; to `CCC(=O)c1ccccc1CS(=O)(=O)NC(=O)Nc1nc(OC)cc(OC)n1`, 155 to 158 °C.
On to `Cc1cc(Br)cc(-c2ccc3c(c2)C(C)(C)OC(=O)N3)c1`, for which the melting point is 231 to 233 °C.
As for `CCOC(=NS(=O)(=O)c1ccccc1OC(F)F)OCC`, the melting point is 80 to 81 °C.
For `O=Cc1nn(-c2ccccc2)c2c1CCC2`, the melting point lay in the range of 108 to 109 °C.
For the molecule `CCOC(=O)c1cc(-c2ccccc2)n(-c2ccc(S(N)(=O)=O)cc2)n1`, the melting point was 192 to 195 °C.
`C[C@H]1C[C@H](C(=O)O)c2cc(Cl)c(Cl)cc2O1` (relative stereo) gave a melting point of 108 to 110 °C.
Regarding `CCCCOCCN(CCCCCSc1nc(-c2ccccc2)c(-c2ccccc2)[nH]1)C(=O)Nc1ccc(F)cc1F`, the melting point was 69 to 71 °C.
As to `COc1ccc(-n2c(=O)c(O)nc3cccnc32)cc1`, the melting point is greater than 300 °C.
`CCOC(=O)c1cnn2c1c(NC1CCCCC1)nc1ccccc12` yielded a melting point of 132 to 135 °C.
For the molecule `Cc1nc2n(c1CO)-c1ccccc1N(C)c1ccccc1-2`, the melting point fell in the range of 187 to 190 °C.
`CCC(CC)c1nc(-c2ccncc2)c(-c2ccc(Cl)cc2)n1C` displayed a melting point of 100 to 102 °C.
In turn, `COc1cccc(-n2c(=O)n(OCc3ccccc3)c(=O)c3cc(F)c(F)cc32)c1` registered a melting point of 157 to 158 °C.
As to `O=c1[nH]c(=O)n(-c2ccccc2)n1-c1ccccc1`, the melting point lay in the range of 216 to 217 °C.
To `CS(=O)(=O)c1ccc(-c2ccc(C(F)(F)F)n2-c2ccc(F)cc2)cc1` belongs 136 to 139 °C; to `Cc1cccc(C)c1NCCCN1C(=O)c2ccccc2C1=O`, 97 to 98 °C.
Consider `Cc1cccc(C)c1N(C(=O)CN)C(=O)CCl`, for which the melting point was in the range of 135 to 137 °C.
Under `CC(OCc1cc2nc(Cl)ccc2n1S(=O)(=O)c1ccc2ncsc2c1)C(=O)O` (centres undefined) stands 179 °C.
Molecule `c1ccc(C(Cc2nc(COc3ccc(CCCn4ccnc4)cc3)co2)c2ccccc2)cc1` registered a melting point of 79 to 80 °C.
`Cc1cc(C)c(C(O)c2cc(-n3ccnc3)ccc2Cl)c(C)c1` (centres undefined) showed a melting point of 206 to 207 °C.
The molecule `CCOC(=O)C(C)OCc1cc2nc(Cl)ccc2n1S(=O)(=O)c1ccc2nsnc2c1` (centres undefined) displayed a melting point of 77 to 79 °C.
Under `Nc1c(Cl)cc(-c2ccccc2)cc1Cl` stands 112 to 113 °C.
The molecule `O=C(NCc1cccnc1)N(c1ccccc1)c1ccccc1` came in with a melting point of 143 °C.
`CCOCC(O)(c1cccnc1)C(C)c1ccc(Cl)cc1Cl` (centres undefined) had a melting point of 86 °C.
Turning to `CC1CCC2(OC1)OC1CC3C4CCC5CC(O)CCC5(C)C4C=CC3(C)C1C2C` (centres undefined), the melting point lay within 179 to 181 °C.
Consider `Nc1ccc(C2=Nn3ccnc3Cc3cc4c(cc32)OCO4)cc1`, for which the melting point was 264 to 265 °C.
On to `CC(C)(C)c1ccc(Oc2ncnc3cc(-c4ncccc4C(F)(F)F)ccc23)cc1`, for which the melting point is 162 to 163 °C.
Consider `O=C(CC1CCCCCC1=O)c1ccc([N+](=O)[O-])cc1` (centres undefined), for which the melting point lay within 79 to 84 °C.
`CC(=O)OC(C)c1ccc2occ(C#N)c(=O)c2c1` (centres undefined) came in with a melting point of 148 to 149 °C.
Under `O=C(c1ccc(Cl)cc1)n1c2c(c3ccccc31)CC(C(=O)O)(C(=O)O)CC2` stands 210 to 212 °C; under `O=C(O)C(c1ccc([N+](=O)[O-])cc1)N1CCCC1` (centres undefined), 103 to 105 °C.
Under `COC(=O)C1=C(C)NC(C)=C(C(=O)OCCN(C)C)C1c1cccc2nonc12` (centres undefined) stands 99 °C.
Molecule `CC(C)=C(C(=O)OCc1ccccc1)N1C(=O)C(Br)(Br)C1Br` (centres undefined) returned a melting point of 68 to 70 °C.
As for `Cc1ccc(C)c2c1CCC2=NNC(N)=Nc1c(Cl)cccc1Cl`, the melting point is greater than 275 °C.
Under `N#CC(OC(=O)CC=Cc1ccccc1)c1ccc2ccccc2c1` (centres undefined) stands 74 to 75 °C; under `COc1ccccc1[C@H](c1cccc2ccccc12)[C@@](C)(C#N)C(=O)N1CCN(c2ccccc2Cl)CC1`, 145 to 147 °C; under `CN(Cc1cc2c(=O)c(C(=O)NCc3ccc(Cl)cc3)cn(C)c2o1)CC(O)c1cccnc1` (centres undefined), 145 to 149 °C.
Molecule `CCOc1ccc(CN2C(=O)C(C)(c3ccccc3Cl)c3cc(Cl)ccc32)c(OC)c1` (centres undefined) yielded a melting point of 124 °C.
Under `CC(C)(C)OC(=O)Nc1ccc(CN2C(=O)C3(COc4cc5c(cc43)OCCO5)c3ccccc32)cn1` (centres undefined) stands 238 to 239 °C; under `CNS(=O)(=O)OCCOc1ccccc1`, 66 to 68 °C; under `CC(=O)N1CCC(C)(C)C2=C1CCc1cc(Cl)ccc12`, 126 to 127 °C.
As to `CON=C(C(=O)O)c1cc2sccc2s1`, the melting point lay in the range of 116 to 117 °C.
Consider `O=C(OCC1CC1)c1ncn2c1[C@@H]1CCCN1C(=O)c1c(Br)cccc1-2`, for which the melting point was in the range of 135 to 136 °C.
On to `COc1cc(C(=O)C(Br)CCC2CCCCC2)c(OC)cc1Cl` (centres undefined), for which the melting point is 73 to 74 °C.
In the case of `COC(=O)CCc1ccc(OCc2cccc(-c3cccc(CO)c3)c2)cc1`, the melting point fell in the range of 185 to 188 °C.
On to `Fc1cc(OCc2ccccc2)cnc1Cl`, for which the melting point was 48 to 52 °C.
The molecule `CCC(=O)CSc1cc(C(C)(C)C)c(O)c(C(C)(C)C)c1` came in with a melting point of 55 to 57 °C.
In the case of `O=S1(=O)c2cccc3cccc(c23)N1CCCl`, the melting point is 96 °C.
To `Cc1cn(C2CC(O)C(CO)(N=[N+]=[N-])O2)c(=O)[nH]c1=O` (centres undefined) belongs 175 to 176 °C; to `COc1ccc(C2CC3(C)C(C=CC3(C)O)C3CCC4=CC(=O)CCC4C23)cc1` (centres undefined), 192 °C.
In turn, `COc1ccc(Nc2nc(=O)cc(N)n2-c2ccccc2)cc1` yielded a melting point of 213 to 216 °C.
Turning to `CON(C)C(=O)c1cc(Cl)nc(Cl)c1`, the melting point was in the range of 69 to 70 °C.
In the case of `Cc1nc(-c2ccc(OC(C)C)cc2)sc1C(=O)O`, the melting point was in the range of 186 to 188 °C.
Turning to `c1ccc(Cc2cc3ccncc3[nH]2)cc1`, the melting point was 142 to 146 °C.
Take `CCOC(=O)c1ccc(-c2ccc(-c3ccc(C(F)(F)F)cc3)s2)cc1`: the melting point lay in the range of 203 to 204 °C.
`NC(=O)C(CCCCCOc1c(Cl)ccc(C=O)c1[N+](=O)[O-])N1CCCCC1` (centres undefined) gave a melting point of 98 to 99 °C.
The molecule `CCCCc1nc2ccc(C(C)=O)cc2c(=O)n1Cc1ccc(-c2ccccc2-c2nnnn2C(c2ccccc2)(c2ccccc2)c2ccccc2)cc1` registered a melting point of 104 to 105 °C.
In turn, `O=C(NC(CCCN1CCN(c2ncc(F)cn2)CC1)c1ccc(F)cc1)c1ccc(F)cc1` (centres undefined) displayed a melting point of 147 to 148 °C.
The molecule `NC(=O)c1c(Br)cc(Br)c(C(=O)O)c1Br` returned a melting point greater than 280 °C.
`CC(O)c1ccc2c(NCc3ccc(NC(=O)c4ccc(F)cc4)cc3)nc(N(C)C)nc2c1` (centres undefined): the melting point is 232 °C.
Consider `N#CCCNC(=O)c1cccc(-c2ccc3c(c2)N(c2ccc(Cl)cc2Cl)CC3)c1`, for which the melting point is 148 to 154 °C.
Turning to `Nc1ccc(Sc2ccnc(N)c2)cc1`, the melting point fell in the range of 141 to 143 °C.
For `c1ccc(-c2nn3cnnc3c3ccccc23)cc1`, the melting point was 198 to 199 °C.
In turn, `CCC(C)NC(=O)n1c(=O)nc(N2CCOCC2)n1C` (centres undefined) returned a melting point of 147 °C.
In turn, `CCCCc1nn(-c2cc(N)ccc2Cl)c(=O)n1Cc1ccc(-c2ccccc2S(=O)(=O)NC(C)(C)C)cc1F` gave a melting point of 167 to 170 °C.
As to `CCCCc1cnc(-c2cnc(-c3ccc(F)cc3)nc2)nc1`, the melting point was 196 °C.
Under `CN(C)C=Nc1c(Cl)cc(N=Cc2cccc(Br)c2)cc1Cl` stands 136 to 138 °C; under `COc1cc(-n2c(C#N)c(C#N)n(C(F)F)c2=O)c(F)cc1Br`, 150 °C; under `N#CC(=Cc1ccc(O)c(O)c1)C(=O)Nc1ccc(Br)cc1`, 277 to 278 °C.
The molecule `COc1ccc2ccc(S(=O)(=O)Cl)cc2c1` yielded a melting point of 81 to 85 °C.
The molecule `CCOC(=O)C(CCc1ccccc1)CC1(C(=O)O)CCCC1` (centres undefined) yielded a melting point of 68 to 69 °C.
For `C[C@H](NC(=O)c1c[nH]c2ncc(-c3cn(-c4cccc(Cl)c4)cn3)nc12)C(C)(C)C`, the melting point was 337 to 339 °C.
With `Cc1oc(C2CCCCC2)nc1C(=O)O`, the melting point was in the range of 173 to 174 °C.
`c1cc(C2=NOC(C3CC3)(N3CCCC3)C2)ccn1` (centres undefined) came in with a melting point of 80 to 85 °C.
Consider `CCOC(=O)CCc1nc2cc3c(cc2[nH]1)NC(=O)C3(C)C`, for which the melting point lay in the range of 194 to 196 °C.
Molecule `ON=C1c2ccccc2CCC1Cc1ccccc1` (centres undefined) displayed a melting point of 123 to 124 °C.
Regarding `NC(=O)c1c(N)n(C2CCCC2)c2nc(Nc3ccc(N4CCOCC4)cc3)ncc2c1=O`, the melting point was 265 °C.
To `CCCCC(CC)C(=O)Nc1ccc2cnn(Cc3ccc(C(=O)OC)cc3OC)c2c1` (centres undefined) belongs 136 °C; to `O=c1c2c(Cc3ccccc3)n[nH]c2c2cccnc2n1-c1cccc([N+](=O)[O-])c1`, 276 to 279 °C; to `CCCCc1oc2ccccc2c1C(=O)N(Cc1ccccc1)Cc1ccc(-c2ccc(OC)c(Br)c2)cc1`, 145 to 148 °C.
